Experimental data: patent publication US11173151B2, “Substituted triazole derivatives and uses thereof” (BAYER AKTIENGESELLSCHAFT, priority 2017, dated 2021)

Columns and labels:
human V1a receptor = biological target: T1, human V1a receptor (Homo sapiens, UniProt P37288); test: Cellular in vitro assay for determining vasopressin receptor activity, V1a receptor cell line (CHO, aequorin luminescence); format: cell-based; settings: for IC50: CHO cell line transfected with human V1a receptor, [Arg]-vasopressin at EC50 concentration, read-out: IC50 hV1a; for ratio IC50 hV2/hV1a: selectivity ratio IC50 hV2 / IC50 hV1a
T1 construct: expressed in transfected cells; host or cells: CHO K1 (ATCC), also stably transfected with a modified aequorin
T1 sequence (P37288 whole entry): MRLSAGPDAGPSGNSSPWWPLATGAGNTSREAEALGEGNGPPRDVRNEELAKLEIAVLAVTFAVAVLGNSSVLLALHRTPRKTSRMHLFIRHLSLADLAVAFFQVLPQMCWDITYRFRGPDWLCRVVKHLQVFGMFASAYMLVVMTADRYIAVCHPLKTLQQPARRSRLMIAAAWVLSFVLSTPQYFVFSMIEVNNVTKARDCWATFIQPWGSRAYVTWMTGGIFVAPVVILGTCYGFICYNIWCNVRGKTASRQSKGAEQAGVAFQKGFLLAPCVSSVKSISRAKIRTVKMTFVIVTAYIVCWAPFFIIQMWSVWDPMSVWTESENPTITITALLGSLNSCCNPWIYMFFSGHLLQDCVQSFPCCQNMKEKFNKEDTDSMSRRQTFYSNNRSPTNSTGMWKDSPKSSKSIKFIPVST
Procedure, shortened: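 CHO K1/aequorin cells, coelenterazine 5 μg/ml o/n; cpd 10 min; [Arg]-vasopressin at EC50; luminescence read immediately; IC50.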

human V2 receptor = biological target: T2, human V2 receptor (Homo sapiens, UniProt P30518); test: Cellular in vitro assay for determining vasopressin receptor activity, V2 receptor cell line (CHO, CRE-luciferase); format: cell-based; settings: CHO cell line transfected with human V2 receptor; [Arg8]-vasopressin at EC50 concentration, 3 hours; read-out: IC50 hV2
T2 construct: expressed in transfected cells; host or cells: CHO K1 (ATCC) expressing firefly luciferase under a CRE-responsive promoter
T2 sequence (P30518 whole entry): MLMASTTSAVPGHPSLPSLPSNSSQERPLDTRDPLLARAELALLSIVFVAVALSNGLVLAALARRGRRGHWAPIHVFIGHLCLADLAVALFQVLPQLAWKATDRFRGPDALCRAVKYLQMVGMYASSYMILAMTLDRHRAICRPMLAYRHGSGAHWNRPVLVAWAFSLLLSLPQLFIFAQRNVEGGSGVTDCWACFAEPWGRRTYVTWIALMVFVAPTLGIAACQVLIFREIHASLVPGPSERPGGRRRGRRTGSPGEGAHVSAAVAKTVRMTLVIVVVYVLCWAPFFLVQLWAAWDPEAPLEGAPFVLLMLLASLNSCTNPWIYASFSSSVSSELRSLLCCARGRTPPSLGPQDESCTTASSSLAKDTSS

Row | IC50 (human V1a receptor) [nM] | ratio IC50 hV2/hV1a (human V1a receptor) | IC50 (human V2 receptor) [nM] | Structure (SMILES)
1 | 14.4 | 463.7 | 6700 | N[C@H]1CCCC[C@@H]1NC(=O)c1ccccc1-n1cnc(Cn2nc(-c3ccc(Cl)cc3)n(C[C@H](O)C(F)(F)F)c2=O)n1 [Example 233, N-[(1S,2S)-2-Aminocyclohexyl]-2-[3-({3-(4-chlorophenyl)-5-oxo-4-[(2S)-3,3,3-trifluoro-2-hydroxypropyl]-4,5-dihydro-1H-1,2,4-triazol-1-yl}methyl)-1H-1,2,4-triazol-1-yl]benzamide]
2 | 6.95 | 417.3 | 2900 | N[C@@H]1CCCC[C@@H]1NC(=O)c1ccccc1-n1cnc(Cn2nc(-c3ccc(Cl)cc3)n(C[C@H](O)C(F)(F)F)c2=O)n1 [Example 234, N-[(1S,2R)-2-Aminocyclohexyl]-2-[3-({3-(4-chlorophenyl)-5-oxo-4-[(2S)-3,3,3-trifluoro-2-hydroxypropyl]-4,5-dihydro-1H-1,2,4-triazol-1-yl}methyl)-1H-1,2,4-triazol-1-yl]benzamide]
3 | 8.7 | 40.8 | 355 | O=C(NCc1ccc(F)cc1)c1ccccc1-n1cnc(Cn2nc(-c3ccc(Cl)cc3)n(C[C@H](O)C(F)(F)F)c2=O)n1 [Example 235, 2-[3-({3-(4-Chlorophenyl)-5-oxo-4-[(2S)-3,3,3-trifluoro-2-hydroxypropyl]-4,5-dihydro-1H-1,2,4-triazol-1-yl}methyl)-1H-1,2,4-triazol-1-yl]-N-(4-fluorobenzyl)benzamide]
4 | 7.05 | 48.2 | 340 | O=C(NCc1cccc(F)c1)c1ccccc1-n1cnc(Cn2nc(-c3ccc(Cl)cc3)n(C[C@H](O)C(F)(F)F)c2=O)n1 [Example 236, 2-[3-({3-(4-Chlorophenyl)-5-oxo-4-[(2S)-3,3,3-trifluoro-2-hydroxypropyl]-4,5-dihydro-1H-1,2,4-triazol-1-yl}methyl)-1H-1,2,4-triazol-1-yl]-N-(3-fluorobenzyl)benzamide]
5 | 15.5 | 28.7 | 445 | C[C@H](NC(=O)c1ccccc1-n1cnc(Cn2nc(-c3ccc(Cl)cc3)n(C[C@H](O)C(F)(F)F)c2=O)n1)C(N)=O [Example 237, N-[(2S)-1-Amino-1-oxopropan-2-yl]-2-[3-({3-(4-chlorophenyl)-5-oxo-4-[(2S)-3,3,3-trifluoro-2-hydroxypropyl]-4,5-dihydro-1H-1,2,4-triazol-1-yl}methyl)-1H-1,2,4-triazol-1-yl]benzamide]
6 | 13.5 | 3.3 | 44.5 | Cc1nnc(NC(=O)c2ccccc2-n2cnc(Cn3nc(-c4ccc(Cl)cc4)n(C[C@H](O)C(F)(F)F)c3=O)n2)s1 [Example 238, 2-[3-({3-(4-Chlorophenyl)-5-oxo-4-[(2S)-3,3,3-trifluoro-2-hydroxypropyl]-4,5-dihydro-1H-1,2,4-triazol-1-yl}methyl)-1H-1,2,4-triazol-1-yl]-N-(5-methyl-1,3,4-thiadiazol-2-yl)benzamide]
7 | 7.35 | 32.7 | 240 | O=C(NCc1ccc(F)c(F)c1)c1ccccc1-n1cnc(Cn2nc(-c3ccc(Cl)cc3)n(C[C@H](O)C(F)(F)F)c2=O)n1 [Example 239, 2-[3-({3-(4-Chlorophenyl)-5-oxo-4-[(2S)-3,3,3-trifluoro-2-hydroxypropyl]-4,5-dihydro-1H-1,2,4-triazol-1-yl}methyl)-1H-1,2,4-triazol-1-yl]-N-(3,4-difluorobenzyl)benzamide]
8 | 12.5 | 24.0 | 300 | Cc1ccnc(NC(=O)c2ccccc2-n2cnc(Cn3nc(-c4ccc(Cl)cc4)n(C[C@H](O)C(F)(F)F)c3=O)n2)n1 [Example 240, 2-[3-({3-(4-Chlorophenyl)-5-oxo-4-[(2S)-3,3,3-trifluoro-2-hydroxypropyl]-4,5-dihydro-1H-1,2,4-triazol-1-yl}methyl)-1H-1,2,4-triazol-1-yl]-N-(4-methylpyrimidin-2-yl)benzamide]
9 | 2.2 | 33.4 | 73.5 | O=C(NCCF)c1ccccc1-n1cnc(Cn2nc(-c3ccc(Cl)cc3)n(C[C@H](O)C(F)(F)F)c2=O)n1 [Example 241, 2-[3-({3-(4-Chlorophenyl)-5-oxo-4-[(2S)-3,3,3-trifluoro-2-hydroxypropyl]-4,5-dihydro-1H-1,2,4-triazol-1-yl}methyl)-1H-1,2,4-triazol-1-yl]-N-(2-fluoroethyl)benzamide]
10 | 5.7 | 22.2 | 126 | O=C(NCc1c(F)cccc1F)c1ccccc1-n1cnc(Cn2nc(-c3ccc(Cl)cc3)n(C[C@H](O)C(F)(F)F)c2=O)n1 [Example 242, 2-[3-({3-(4-Chlorophenyl)-5-oxo-4-[(2S)-3,3,3-trifluoro-2-hydroxypropyl]-4,5-dihydro-1H-1,2,4-triazol-1-yl}methyl)-1H-1,2,4-triazol-1-yl]-N-(2,6-difluorobenzyl)benzamide]
11 | 22.5 | 24.0 | 540 | O=C(NCc1cc(F)cc(F)c1)c1ccccc1-n1cnc(Cn2nc(-c3ccc(Cl)cc3)n(C[C@H](O)C(F)(F)F)c2=O)n1 [Example 243, 2-[3-({3-(4-Chlorophenyl)-5-oxo-4-[(2S)-3,3,3-trifluoro-2-hydroxypropyl]-4,5-dihydro-1H-1,2,4-triazol-1-yl}methyl)-1H-1,2,4-triazol-1-yl]-N-(3,5-difluorobenzyl)benzamide]
12 | 7.3 | 31.5 | 230 | Cc1noc(NC(=O)c2ccccc2-n2cnc(Cn3nc(-c4ccc(Cl)cc4)n(C[C@H](O)C(F)(F)F)c3=O)n2)c1C [Example 244, 2-[3-({3-(4-Chlorophenyl)-5-oxo-4-[(2S)-3,3,3-trifluoro-2-hydroxypropyl]-4,5-dihydro-1H-1,2,4-triazol-1-yl}methyl)-1H-1,2,4-triazol-1-yl]-N-(3,4-dimethyl-1,2-oxazol-5-yl)benzamide]
13 | 6.45 | 125.6 | 810 | CC(C)=CCNC(=O)c1ccccc1-n1cnc(Cn2nc(-c3ccc(Cl)cc3)n(C[C@H](O)C(F)(F)F)c2=O)n1 [Example 245, 2-[3-({3-(4-Chlorophenyl)-5-oxo-4-[(2S)-3,3,3-trifluoro-2-hydroxypropyl]-4,5-dihydro-1H-1,2,4-triazol-1-yl}methyl)-1H-1,2,4-triazol-1-yl]-N-(3-methylbut-2-en-1-yl)benzamide]
14 | 4.55 | 263.7 | 1200 | O=C(N[C@H]1CC[C@H](O)CC1)c1ccccc1-n1cnc(Cn2nc(-c3ccc(Cl)cc3)n(C[C@H](O)C(F)(F)F)c2=O)n1 [Example 246, 2-[3-({3-(4-Chlorophenyl)-5-oxo-4-[(2S)-3,3,3-trifluoro-2-hydroxypropyl]-4,5-dihydro-1H-1,2,4-triazol-1-yl}methyl)-1H-1,2,4-triazol-1-yl]-N-(trans-4-hydroxycyclohexyl)benzamide]
15 | 2.4 | 4.4 | 10.4 | O=C(Nc1ccccc1O)c1ccccc1-n1cnc(Cn2nc(-c3ccc(Cl)cc3)n(C[C@H](O)C(F)(F)F)c2=O)n1 [Example 247, 2-[3-({3-(4-Chlorophenyl)-5-oxo-4-[(2S)-3,3,3-trifluoro-2-hydroxypropyl]-4,5-dihydro-1H-1,2,4-triazol-1-yl}methyl)-1H-1,2,4-triazol-1-yl]-N-(2-hydroxyphenyl)benzamide]
16 | 1.2 | 54.2 | 65 | O=C(Nc1cccnc1)c1ccccc1-n1cnc(Cn2nc(-c3ccc(Cl)cc3)n(C[C@H](O)C(F)(F)F)c2=O)n1 [Example 248, 2-[3-({3-(4-Chlorophenyl)-5-oxo-4-[(2S)-3,3,3-trifluoro-2-hydroxypropyl]-4,5-dihydro-1H-1,2,4-triazol-1-yl}methyl)-1H-1,2,4-triazol-1-yl]-N-(pyridin-3-yl)benzamide]
17 | 2.8 | 48.6 | 136 | Cc1ccc(NC(=O)c2ccccc2-n2cnc(Cn3nc(-c4ccc(Cl)cc4)n(C[C@H](O)C(F)(F)F)c3=O)n2)cn1 [Example 249, 2-[3-({3-(4-Chlorophenyl)-5-oxo-4-[(2S)-3,3,3-trifluoro-2-hydroxypropyl]-4,5-dihydro-1H-1,2,4-triazol-1-yl}methyl)-1H-1,2,4-triazol-1-yl]-N-(6-methylpyridin-3-yl)benzamide]
18 | 4.45 | 19.6 | 87 | Cc1cc(NC(=O)c2ccccc2-n2cnc(Cn3nc(-c4ccc(Cl)cc4)n(C[C@H](O)C(F)(F)F)c3=O)n2)cnc1F [Example 250, 2-[3-({3-(4-Chlorophenyl)-5-oxo-4-[(2S)-3,3,3-trifluoro-2-hydroxypropyl]-4,5-dihydro-1H-1,2,4-triazol-1-yl}methyl)-1H-1,2,4-triazol-1-yl]-N-(6-fluoro-5-methylpyridin-3-yl)benzamide]
19 | 8.85 | 9.2 | 81.5 | O=C(Nc1nncs1)c1ccccc1-n1cnc(Cn2nc(-c3ccc(Cl)cc3)n(C[C@H](O)C(F)(F)F)c2=O)n1 [Example 251, 2-[3-({3-(4-Chlorophenyl)-5-oxo-4-[(2S)-3,3,3-trifluoro-2-hydroxypropyl]-4,5-dihydro-1H-1,2,4-triazol-1-yl}methyl)-1H-1,2,4-triazol-1-yl]-N-(1,3,4-thiadiazol-2-yl)benzamide]
20 | 7.6 | 33.6 | 255 | N#CCNC(=O)c1ccccc1-n1cnc(Cn2nc(-c3ccc(Cl)cc3)n(C[C@H](O)C(F)(F)F)c2=O)n1 [Example 252, 2-[3-({3-(4-Chlorophenyl)-5-oxo-4-[(2S)-3,3,3-trifluoro-2-hydroxypropyl]-4,5-dihydro-1H-1,2,4-triazol-1-yl}methyl)-1H-1,2,4-triazol-1-yl]-N-(cyanomethyl)benzamide]
